pKi: −log10 of the molar value.

We go through four compounds from PMC10324113, “Gut microbiome modulates tacrolimus pharmacokinetics through the transcriptional regulation of ABCB1” (Microbiome, 2023).

The target of series [1] is T1, ABCB1 (Homo sapiens, UniProt P08183).
T1 construct: expressed in transfected cells
In words: ABCB1 functionality assay: rhodamine 123 intracellular accumulation in HEK293 recombinant cells. Format: cell-based. The conditions noted are these: 5 μM Rh123, 90 min, PBS condition.
Protocol: First, we tested the impact of FW on the intrinsic ABCB1 efflux functionality. The intracellular accumulation of rhodamine 123 (Rh123), a fluorescent-specific substrate of ABCB1 [39, 40], was performed in HEK293 recombinant cells. Rh123 accumulation was compared between control cells (Control plasmid) expressing low basal levels of ABCB1 and stably transfected cells overexpressing ABCB1 (ABCB1 plasmid), pre-exposed or not to FW for 15 min (Fig. 8A).
Briefly, HEK293 cells were transfected with a plasmid encoding for ABCB1 (ABCB1 plasmid) or an empty vector (control plasmid). HEK293 cells feature low endogenous levels of expression of ABCB1, ensuring that all ABCB1 expression originates from the transfection process. […] Finally, the cells were washed with buffer and resuspended before being analysed using a BD FACSVerse flow cytometer (for characterization) or BD FACSAria III (for cell sorting) and the BD FACSuite software (BD Bioscience, USA). […]
One day before the experiment, 9*10^4 cells (HEK293) were plated in poly-L-lysine-coated black 96-well plates in complete medium. […] Finally, the intracellular fluorescence of Rh123 was analysed by a fluorimeter SpectraMax i3x (Molecular Devices, USA); excitation wavelength was set at 485 nm and emission at 530 nm.

Series [2] in a line: Tacrolimus whole blood pharmacokinetics after oral gavage in mice (HPLC-MS/MS, population PK model). The conditions noted are these: for AUC: TAC AUC (population PK-derived). As for the experimental part: TAC was suspended in a mix of water and propylene glycol (90:10), 3 to 5 days before the first administration and kept at 4 °C. […] TAC was first dissolved in propylene glycol, then the water was added. The suspension was homogenized using an ultrasonic homogenizer 3 times for 15 s (QSonica Q700 sonicator, QSonica LLC., USA). TAC concentration was always checked before the first and after the last gavage to control for the dose. TAC or the vehicle was administered once a day (always at the same period) by oral gavage. A dose of 3 mg of TAC/kg of body weight was administered for 5 days, except in the dose determination study where different escalating doses (from 0.1 to 10 mg/kg of body weight) were tested (4 days of treatment).
It was administered via drinking water and renewed every other day.
Zosuquidar (ZSQ) was suspended in aqueous 0.5% methylcellulose (based on Matsuda et al.). A single dose of 30 mg/kg of body weight was administered 15 min before last TAC administration by oral gavage (based on Kono et al.).
Fresh faeces were collected and quickly frozen on dry ice before storage at − 80 °C until further analysis or use. Whole blood samples were collected from the tail of awake freely moving mice, at various time points (ranging from 1 to 24 h = T0, after last gavage). The blood sampling strategy used to generate the concentration–time curve of TAC blood levels in mice is detailed in the Supporting information. Before necropsy, mice were fasted for minimum 4 h and anesthetized with ketamine-xylazine or isoflurane. Hepatic and intestinal tissues were quickly collected and frozen in liquid nitrogen before storage at − 80 °C until further analysis.
Blood quantification of TAC was performed on a high-performance liquid chromatography-tandem mass spectrometry (HPLC–MS/MS) method, as already described elsewhere and further optimized for the small amounts of blood available in mouse PK studies. Briefly, the Agilent HPLC 1290 Infinity system is coupled to the 6460 Triple Quadrupole instrument. Fifty microlitres of whole blood was pre-treated and vortexed with 50 μl zinc sulfate 0.1 M, and 125 μl internal standard (ascomycin, 5 μg/L) in methanol. Samples were sonicated for 5 min, before 5 min of centrifugation at 13,500 rpm. Forty microlitres of the supernatant was injected into the system. The precolumn used was the 10 × 4 mm 3 μm Mercury Phenomenex, and the analytical column was the 4.6 × 50 mm 1.8 μm Agilent Zorbax Eclipse XDB C18, maintained at 60 °C. The mobile phase of pump 1 contained a mixture of H2O/methanol (40/60%), and pump 2 2 mM NH4^+ acetate, and aqueous 0.5% formic acid/ methanol (5/95%). […] The method is fully validated in terms of analytical performance (limit of quantification: 0.5 ng/ml; imprecision < 5%) and ion suppression effects. The laboratory participates to the TAC International Proficiency Testing Scheme (ASI, London, UK).
All data generated in this project (n = 351 PK data) were used to develop a population PK model of TAC in mice at steady-state with an average number of observations per subject of 3.5. Population PK modeling of TAC blood concentrations was performed with MonolixSuite-2020R1 software (Lixoft, France) using the stochastic approximation expectation–maximization (SAEM) algorithm. Between-subject variability (eta) was described using an exponential model and covariance between random effects was investigated. Three error models (i.e. proportional, additive and combined) to describe the residual error were tested. The influence of mouse treatment on PK parameters was also investigated through its association with the eta of PK parameters. Additional information on the building of the population PK model (e.g. the precise description of number of measurements per time points) is provided in the Supporting Information.

A further series concerns gut microbiota. In words: Faecal microbiota composition by 16S rRNA gene sequencing in TAC-treated mice. The class given is in vivo. As for the experimental part: (§1) Genomic DNA was extracted from faeces using a QIAamp DNA Stool Mini Kit (Qiagen, Germany), including a bead-beating step. Absolute quantification of the total bacteria was performed by quantitative polymerase chain reaction (qPCR) using the primers Bacteria Universal P338f ([…]) and P518r ([…]). 16S rRNA gene sequencing and ensuing bioinformatics and biostatistics analyses (including amplicon sequence variants (ASV) identification) were performed as previously described. Full details are provided in the Supporting Information.
To evaluate the potential impact of TAC oral administration on the gut microbiota composition, we compared the faecal bacterial composition of mice treated with TAC (TAC) or with the vehicle (CTL). Faeces were collected at baseline (day 0) and after 2 and 5 days of treatment.
To assess the impact of ATB on the bacterial load, genomic DNA was extracted from faeces using the QIAamp DNA Stool Mini Kit (Qiagen, Germany) according to manufacturer’s instructions, with the addition of a bead-beating step. To assess the impact of TAC on gut microbiota composition, genomic DNA was extracted from faeces following the protocol Q described by Costea et al. This protocol uses a QIAamp DNA Stool Mini Kit (Qiagen, Germany), including a bead-beating step. Treatment with RNAse A was performed (10 mg/ml, Thermo Fisher Scientific, USA). DNA concentration was determined using a NanoDrop 2000 (Thermo Fisher Scientific, USA).
Amplicon sequencing of the microbiome was done at the University of Minnesota Genomics Center. Briefly, the V5-V6 region of the 16S rRNA gene was PCR-enriched using the primer pair V5F_Nextera ([…]) and V6R_Nextera ([…]) in a 25 μl PCR reaction containing 5 μl of template DNA, […], 500 nM of final concentration of primers and 0.025 U/μl of HostStar Taq+ polymerase (Qiagen Germany). PCR-enrichment reactions were conducted as follow, an initial denaturation step at 95°C for 5 min followed by 25 cycles of denaturation (20 s at 98°C), annealing (15 s at 55°C), and elongation (1 min at 72°C), and a final elongation step (5 min at 72°C). Next, the PCR-enriched samples were diluted 1:100 in water for input into library tailing PCR. The PCR reaction was analogous to the one conducted for enrichment except with a KAPA HiFi Hot Start Polymerase concentration of 0.25 U/μl, while the cycling conditions used were as follows: initial denaturation at 95°C for 5 min followed by 10 cycles of denaturation (20 s at 98°C), annealing (15 s at 55°C), and elongation (1 min at 72°C), and a final elongation step (5 min at 72°C). The primers used for tailing are the following: F-indexing primer […][i5][…] and R-indexing primer […][i7][…] GCTCGG, where [i5] and [i7] refer to the index sequence codes used by Illumina. The resulting 10 μl indexing PCR reactions were normalized using a SequalPrep normalization plate according to the manufacturer’s instructions (Life Technologies, USA). 20 μl of each normalized sample was pooled into a trough, and a SpeedVac was used to concentrate the sample pool down to 100 μl. The pool was then cleaned using 1X AMPureXP beads and eluted in 25 μl of nuclease-free water. The final pool was quantitated by QUBIT (Life Technologies, USA) and checked on a Bioanalyzer High-Sensitivity DNA Chip (Agilent Technologies, USA) to ensure correct amplicon size. The final pool was then normalized to 2 nM, denatured with NaOH, diluted to 8 pM in Illumina’s HT1 buffer, spiked with 20% PhiX, and heat denatured at 96°C for 2 minutes immediately prior to loading. A MiSeq 600 cycle v3 kit was used to sequence the pool. Raw sequences can be found in the SRA database (project ID: PRJNA877868).
Subsequent bioinformatics analyses were performed in-house as previously described. Initial quality filtering of the reads was performed with the Illumina Software, yielding an average of 51 929 pass-filter reads per sample. […]

Another series concerns total bacteria. The experiment in a line: Absolute quantification of total faecal bacteria by qPCR. Format: in vivo. The conditions noted are these: CTL and TAC mice, faeces, up to 5 days. As for the experimental part: as §1
To assess the impact of ATB on the bacterial load, genomic DNA was extracted from faeces using the QIAamp DNA Stool Mini Kit (Qiagen, Germany) according to manufacturer’s instructions, with the addition of a bead-beating step. […] DNA concentration was determined using a NanoDrop 2000 (Thermo Fisher Scientific, USA).
PCR was performed with a QuantStudio3 (Applied Biosystems, USA) using SYBR Green (GoTaq® qPCR mix, Promega, USA) for detection. […] Threshold was manually adjusted to reach the linear range of the log-fluorescent curves and CT values were determined using the QuantStudio software v1.4.3 (Applied Biosystems, USA). Absolute quantification was achieved through the inclusion of a standard curve (performed in duplicate) on each plate generated by diluting DNA from pure culture of L. acidophilus NCFM (five-fold serial dilution). […]
For orientation: Quantitative PCR measures a nucleic acid by following its amplification.

Series [3] can be described thus: Stability of the TAC suspension for gavage. The class given is physicochemical. The conditions noted are these: suspension in water and propylene glycol (90:10), kept at 4 °C.
For series [4] the following is noted: cited from earlier work.
The next series has as its system CYP3A. Set-up: method as in PMID 11172691. Conditions: in vitro; cited from earlier work.
The subject of series [5] is ABCB1. Set-up: method as in PMID 11172691. The conditions noted are these: cited from earlier work.
[6] abbreviates: mice, oral gavage, steady-state, mono-compartmental population PK model, mean.
The mark [7] stands for this setting: 5 days TAC oral vs vehicle-treated mice.

T1 sequence (P08183 whole entry): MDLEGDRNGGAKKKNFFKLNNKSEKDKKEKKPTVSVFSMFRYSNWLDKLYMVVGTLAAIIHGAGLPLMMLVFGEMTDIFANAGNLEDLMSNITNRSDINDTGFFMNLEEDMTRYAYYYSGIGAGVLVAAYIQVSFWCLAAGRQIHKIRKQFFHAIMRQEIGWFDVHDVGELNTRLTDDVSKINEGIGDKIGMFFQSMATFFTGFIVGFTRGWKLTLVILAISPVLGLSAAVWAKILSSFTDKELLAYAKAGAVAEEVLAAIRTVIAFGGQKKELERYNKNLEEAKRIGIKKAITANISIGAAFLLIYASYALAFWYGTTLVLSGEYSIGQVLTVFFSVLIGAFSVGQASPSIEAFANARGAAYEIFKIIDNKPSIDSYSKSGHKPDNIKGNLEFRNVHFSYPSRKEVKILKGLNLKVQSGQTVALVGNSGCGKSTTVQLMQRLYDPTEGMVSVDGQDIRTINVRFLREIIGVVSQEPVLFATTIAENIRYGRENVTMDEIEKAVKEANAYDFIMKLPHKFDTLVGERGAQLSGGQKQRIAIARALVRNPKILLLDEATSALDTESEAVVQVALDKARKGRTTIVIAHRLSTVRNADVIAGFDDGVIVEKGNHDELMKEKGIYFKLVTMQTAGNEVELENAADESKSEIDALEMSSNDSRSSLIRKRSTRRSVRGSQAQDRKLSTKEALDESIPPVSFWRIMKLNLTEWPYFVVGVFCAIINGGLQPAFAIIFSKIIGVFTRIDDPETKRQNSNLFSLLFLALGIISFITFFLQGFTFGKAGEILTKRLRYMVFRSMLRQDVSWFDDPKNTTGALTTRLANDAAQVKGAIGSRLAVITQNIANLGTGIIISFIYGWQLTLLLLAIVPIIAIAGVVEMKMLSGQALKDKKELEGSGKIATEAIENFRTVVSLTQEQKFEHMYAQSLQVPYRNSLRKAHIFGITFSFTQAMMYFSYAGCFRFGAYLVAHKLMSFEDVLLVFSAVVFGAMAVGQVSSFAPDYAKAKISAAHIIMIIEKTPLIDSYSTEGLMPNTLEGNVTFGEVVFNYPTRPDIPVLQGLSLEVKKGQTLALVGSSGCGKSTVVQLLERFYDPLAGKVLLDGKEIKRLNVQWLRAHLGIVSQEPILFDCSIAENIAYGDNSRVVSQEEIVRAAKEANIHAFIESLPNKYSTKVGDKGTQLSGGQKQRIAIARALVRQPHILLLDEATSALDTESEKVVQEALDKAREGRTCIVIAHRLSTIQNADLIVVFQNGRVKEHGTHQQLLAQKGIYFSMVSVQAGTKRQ

As to `COC(=O)c1ccccc1-c1c2ccc(=N)cc-2oc2cc(N)ccc12` [Rh123, rhodamine 123], the “intracellular accumulation in ABCB1 overexpressing cells vs control cells” value at ABCB1 [1] is “accumulated significantly less”.
Usually AUC stands for the area under the concentration-time curve, a measure of exposure. Turning to `C=CC[C@@H]1/C=C(\C)C[C@H](C)C[C@H](OC)[C@H]2O[C@@](O)(C(=O)C(=O)N3CCCC[C@H]3C(=O)O[C@H](/C(C)=C/[C@@H]3CC[C@@H](O)[C@H](OC)C3)[C@H](C)[C@@H](O)CC1=O)[C@H](C)C[C@@H]2OC` [TAC, tacrolimus], the “increase in TAC whole blood exposure” value in series [2] (ATB-treated vs control mice, both under ZSQ supplementation) is 75%. For the same compound, the “reduction in TAC whole blood exposure” value in series [2] (mice with lower intestinal microbial load due to antibiotics vs controls) was 33%. Moreover, the “time of absorption peak after the last administration” value in series [2] (mice, 3 mg/kg oral, steady-state concentration-time curve) is recorded as 2 h. Also, in series [2] (setting [6]), the “Ka (absorption rate constant)” value came out at 1.20 h⁻¹ and the “V (volume of distribution)” value is on record as 1.88 L. The “Cl/F (oral clearance)” value in series [2] (mice, oral gavage, steady-state, mono-compartmental population PK model, mean, n = 351 blood samples in 99 mice) was 0.32 L/h. The concentration at 2 h in series [2] (mouse, whole blood, po, 3 mg/kg) worked out at 39.1 ng/mL. Further, the exposure (AUC) in series [2] (mouse, whole blood, po, 3 mg/kg, ATB-treated mice (TAC + ATB), 3 mg/kg oral 5 days, steady-state) amounted to 131 ng·h/mL. In series [2] (mouse, whole blood, po, 3 mg/kg, mice treated with TAC solely, 3 mg/kg oral 5 days, steady-state), this compound returned an AUC of 195 ng·h/mL. Further, the AUC in series [2] (mouse, whole blood, po, TAC + ZSQ + ATB mice, ZSQ 30 mg/kg oral 15 min before last TAC administration) came out at 618 ng·h/mL. In series [2] (mouse, whole blood, po, TAC + ZSQ mice, ZSQ 30 mg/kg oral 15 min before last TAC administration), the exposure (AUC) is 354 ng·h/mL. Besides, in the series on gut microbiota (setting [7]), the “evenness of the gut microbiota (Simpson's and Heip's evenness indexes)” value was “significant reduction”; the “indexes combining richness and evenness (Shannon and Simpson indexes)” value is “significantly reduced”; the “richness (Chao1 and Observed ASV indexes)” value was “did not affect”. Besides, in the series on gut microbiota (family level, 5 days TAC), the “relative abundance of Clostridiales incertae sedis XIII” value is reported as “decrease”, the “relative abundance of Lachnospiraceae” value is listed as “decrease”, the “relative abundance of Rikenellaceae” value is given as “increase” and the “relative abundance of Ruminococcaceae” value was “decrease”. Besides, the “relative abundance of Verrucomicrobiaceae” value in the series on gut microbiota (family level, 5 days TAC) is “increase”. Besides, in the series on gut microbiota (genus level, 5 days TAC), the “relative abundance of Akkermansia” value is “increased”, the “relative abundance of Alistipes” value is reported as “increased”, the “relative abundance of Oscillibacter” value was “decreased” and the “relative abundance of Ruminococcus 2” value was “decreased”. Also, in the series with gut microbiota (genus level, after 5 days of treatment, PERMANOVA p < 0.05), the “variability in the microbiota dataset accounted for by TAC administration” value is recorded as 15%. Moreover, the “change in total bacterial load over time” value with total bacteria was “did not observe any significant change”. Moreover, the “stability of the solution validated for” value in series [3] came out at 15 days. For the same compound, the “parent drug recovered unchanged in the faeces or urine” value in series [4] is reported as “less than 0.5%”. Moreover, the “time of absorption peak after drug intake” value in series [4] (human population) was “around 2 h”. Moreover, the “time to steady-state (5 times the half-life)” value in series [4] (human) is recorded as ~ 60 h.
The pKi is the negative decadic logarithm of the Ki, by convention in mol/L. As for `O[C@@H](COc1cccc2ncccc12)CN1CCN([C@@H]2c3ccccc3[C@@H]3[C@H](c4ccccc42)C3(F)F)CC1` [ZSQ, Zosuquidar], the “change in TAC AUC in comparison to TAC solely group” value in series [2] (mouse, in vivo) was “significant increase”. Moreover, the pKi was approximately 5.42 in the series on CYP3A and approximately 7.23 in the series with ABCB1 [5]. Besides, the “affinity for CYP3A lower than for ABCB1” value in the series on ABCB1 [5] (CYP3A vs ABCB1) is “more than 60 times”.
Take `C=CCC1C=C(C)CC(C)CC(OC)C2OC(O)(C(C)CC2OC)C(O)C(=O)N2CCCCC2C(=O)OC(C(C)=CC2CCC(O)C(OC)C2)C(C)C(O)CC1=O` (centres unmarked) [bacteria-derived TAC metabolite]: in series [4] (human, in vivo), the “bacteria-derived TAC metabolite as share of the parent drug” value is ≤ 5 % of the parent drug.
